Patent US10301288B2, “Kinase inhibitors” (Topivert Pharma Limited, priority 2013, dated 2019)
Read-outs that look alike come from different tables or passages of the source.

Key:
d-U937 cells = assay: (a) LPS-induced TNFα/IL-8 release in d-U937 cells; type: cell-based; conditions: Homo sapiens, dU937 cells
Protocol: U937 cells, a human monocytic cell line, are differentiated into macrophage-type cells by incubation with PMA (100 ng/mL) for 48 to 72 hr. Cells are pre-incubated with final concentrations of test compound for 2 hr and are then stimulated with LPS (0.1 μg/mL; from E. Coli: O111:B4, Sigma) for 4 hr. The supernatant is collected for determination of TNFα and IL-8 concentrations by sandwich ELISA (Duo-set, R&D systems). […] The relative 50% effective concentration (REC50) is determined from the resultant concentration-response curve. The inhibition of IL-8 production is calculated at each concentration of test compound by comparison with vehicle control.

[1] = Analysis of metabolites in hepatocytes; type: in vitro ADME, rat, dog, Cynomolgus macaque, human; conditions: 10 μM, hepatocytes of four species, 0, 60 and 90 minutes
Protocol: Studies were conducted by BioFocus (Saffron Walden, UK) to determine the metabolic fate of the compound of Example 2 following incubation with rat, dog, Cynomolgus macaque or human hepatocytes.
Sample replicates were pooled prior to analysis.
Potential metabolites were identified using time-of-flight (TOF) and triple quadruple (TQ) mass spectrometers.

PBMCs = assay: (b) LPS-induced TNFα/IL-8 release in PBMC cells; type: cell-based; conditions: Homo sapiens
Naïve CD4+ T cells = assay: (g) T cell proliferation; type: cell-based; conditions: Homo sapiens, assay (g), read-out: IC50 for inhibition of T cell proliferation
Protocol: PBMCs from healthy subjects are separated from whole blood using a density gradient (Lymphoprep, Axis-Shield Healthcare). The lymphocyte fraction is first enriched for CD4+ T cells by negative magnetic cell sorting as per the manufacturer's instructions (Miltenyi Biotec 130-091-155). Naïve CD4+ T cells are then separated using positive magnetic selection of CD45RA+ cells using microbeads as per the manufacturer's instructions (130-045-901). Cells are plated at 2×10^5 cells per well in 100 μL RPMI/10% FBS on 96 well flat bottomed plate (Corning Costar). 25 μL of test compound are diluted to the appropriate concentration (8× final conc.) in normal medium and added to duplicate wells on the plate to achieve a dose response range of 0.03 ng/mL-250 ng/mL. DMSO is added as a negative control. Plates are allowed to pre-incubate for 2 hours before stimulation with 1 μg/mL anti-CD3 (OKT3; eBioscience). After 72 h, the medium in each well is replaced with 150 μL of fresh medium containing 10 μM BrdU (Roche). […] The reaction is stopped by addition of 50 μL of 1 M H2SO4, and read for absorbance at 450 nm on a plate reader (Varioskan® Flash, ThermoFisher Scientific). The IC50 is determined from the dose response curve.

[2] = Chemical stability in solid form at 40° C. and 75% relative humidity; type: physicochemical
Protocol: The results of the study are reported in the table below (where chemical purity was assessed using HPLC).

[3] = read-out: IC50 for Inhibition of Cytokine Release, IL-8
[4] = read-out: IC50 for Inhibition of Cytokine Release, TNFα

For `C#Cc1cc(Nc2nccc(Oc3ccc(NC(=O)Nc4cc(C(C)(C)C)nn4-c4ccc(C)cc4)c4ccccc34)n2)cc(C(=O)NCCOCCOCCOC)c1` [Example 2, 3-((4-((4-(3-(3-(tert-Butyl)-1-(p-tolyl)-1H-pyrazol-5-yl)ureido)naphthalen-1-yl)oxy)pyrimidin-2-yl)amino)-5-ethynyl-N-(2-(2-(2-methoxyethoxy)ethoxy)ethyl)-benzamide], the IC50 (d-U937 cells; [3]) was 0.5 nM, the IC50 (d-U937 cells; [4]) was 0.5 nM and the “total metabolites identified in all studies” value [1] was “nine”. It also gave an IC50 (PBMCs; [3]) of 2 nM, an IC50 (PBMCs; [4]) of 0.7 nM and an IC50 (Naïve CD4+ T cells) of 2.7 nM. For the same compound, the “chemical purity (HPLC), solid form” value ([2]; 0 months) was 98.52%, the “chemical purity (HPLC), solid form” value ([2]; 1 month, 40° C./75% RH) was 96.88% and the “chemical purity (HPLC), solid form” value ([2]; 3 months, 40° C./75% RH) was 94.32%.
